This note sets out measurements from patent US7993884B2, “Beta-xylosidase for conversion of plant cell wall carbohydrates to simple sugars” (The United States of America as represented by the …, priority 2006, dated 2011).

Where two headings read alike, the source gives them in different places.

The target of test [1] is T1, SXA (Selenomonas ruminantium, UniProt O52575). The settings on record: 100 mM sodium phosphate, pH 7.0, 25° C., not well determined.
In test [2] the target is T1, SXA. Nature of the test: SXA-catalyzed hydrolysis of 4NP-glycoside substrates, initial rates (Methods A and B).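 Also: initial rates from 4-nitrophenol release, tracked by absorbance over roughly 0.3 min and converted using product-minus-substrate extinction differences, in 1 mL mixtures started by enzyme addition.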 The settings on record: read-out: Ki(xylose). It is filed as biochemical.
In test [3] the target is T1, SXA. Description: biochemical. The settings on record: Ki^D-xylose, inhibition of SXA-catalyzed hydrolysis of 4NPA.
Test [4] addresses T1, SXA. Description: biochemical. The following applies: pH 5.3, 25° C.
Test [5] concerns the target T1, SXA. Nature of the test: biochemical. The settings on record: inhibition of SXA-catalyzed hydrolysis of 4NPX, I=0.3 M, competitive. As for the experimental part:
Reactions were monitored continuously for 0.3 min at 400 nm to determine initial rates. Initial-rate data were fitted to equation 6, where v is the initial rate, kcat is the rate of the reaction when saturated with substrate, S is the substrate concentration, Km is the Michaelis constant, I is the inhibitor concentration (e.g., D-glucose), and Ki is the dissociation constant of inhibitor from the enzyme-inhibitor complex.

For test [6], the target named is T1, SXA. Nature of the test: pH stability of SXA and protection from low pH inactivation at pH 4.0 by monosaccharides. The settings on record: pH 4.0, 25° C.
The target in test [7] is T1, SXA. The settings on record: pH 5.3, 55° C. As for the experimental part: Initial rates were determined by monitoring reactions continuously at 400 nM for 0.3 min. […] Relative activity remaining data were fitted to equation 3, which describes a first order decay: A is the relative activity remaining at varied times of preincubation, A0 is the relative activity remaining at time zero of the preincubation, kobs is the first order rate constant, and t is the time of preincubation. Apparent affinities for D-xylose and D-glucose were determined by fitting kobs values from the monosaccharide protection studies to equation 4 where kobs is the observed first order rate constant for the decay, k0 is the first order rate constant in the absence of ligand (e.g., D-xylose), I is the ligand concentration in the preincubation mixture, and Ki is the dissociation constant of ligand from the enzyme-ligand complex.
Ligand protection studies contained varied concentrations of D-xylose or D-glucose in the pH 5.3 preincubation buffer at 55° C.

For test [8], the target named is β-D-xylosidase/α-L-arabinofuranosidase (Selenomonas ruminantium, UniProt O52575). Description: Inhibition of the enzyme by monosaccharides and ethanol (detailed description). It is filed as biochemical, Selenomonas ruminantium GA192. The settings on record: read-out: Ki.

Take `O=[N+]([O-])c1ccc(O[C@@H]2OC[C@@H](O[C@@H]3OC[C@@H](O)[C@H](O)[C@H]3O)[C@H](O)[C@H]2O)cc1` [4NPX2, 4-Nitrophenyl-β-D-xylobioside]: at SXA [1], the “kcat (4NPX2 to 4NPX + D-xylose)” value was 50.5 ± 25.7 s⁻¹. The Km on SXA [1] (read-out: Km (4NPX2 to 4NPX + D-xylose)) came to 690 ± 430 µM.
With `O=C[C@H](O)[C@@H](O)[C@H](O)CO` [D-xylose], the Ki on SXA [2] was found to be 7.4 mM; at SXA [3] (D-xylose α:β 1:2.5, pH 7.0 (100 mM sodium phosphate, I=0.3 M), 25° C.), 5.15 ± 0.08 mM; on SXA [3] (D-xylose α:β 6:1, pH 7.0 (100 mM sodium phosphate, I=0.3 M), 25° C.), 4.97 ± 0.05 mM; at SXA [3] (D-xylose α:β ratio of 1:2.5, pH 5.3, 25° C., competitive), 11.8 ± 0.3 mM; on SXA [3] (D-xylose α:β ratio of 6:1, pH 5.3, 25° C., competitive), 11.9 ± 0.3 mM; at SXA [4] (Ki^D-xylose, inhibition of SXA-catalyzed hydrolysis of 4NPX, Eq. 3 noncompetitive (mixed), D-xylose α:β 1:2.5), 9.63 ± 0.3 mM. For the same molecule, the Ki on SXA [4] (Kis^D-xylose·4NPX, Eq. 3) came out at 15.9 ± 2.1 mM; at SXA [5] (pH 4.3, 25° C.), 43.5 ± 1.1 mM; on SXA [5] (pH 5.3, 25° C.), 7.62 ± 0.26 mM; at SXA [5] (pH 7.0, 25° C.) it was 3.82 ± 0.06 mM; at SXA [5] (pH 9.0, 25° C.), 3.21 ± 0.14 mM; in test [8], 4.2 ± 0.1 mM. In addition, the “kobs of SXA inactivation in presence of monosaccharide” value is 0.0335 ± 0.0008 min⁻¹ on SXA [6] (46.7 mM); 0.0186 ± 0.0004 min⁻¹ on SXA [6] (93.5 mM); 0.00614 ± 0.00036 min⁻¹ at SXA [6] (280 mM); 0.0132 ± 0.0010 min⁻¹ at SXA [7] (18.7 mM); 0.00649 ± 0.00087 min⁻¹ on SXA [7] (46.7 mM); 0.00326 ± 0.00056 min⁻¹ on SXA [7] (93.5 mM). On SXA [7] (280 mM), the “kobs of SXA inactivation in presence of monosaccharide” value was 0.000917 ± 0.00033 min⁻¹. Moreover, the KI (inactivation) was found to be 31.7 ± 2.8 mM at SXA [6] (read-out: Ki, dissociation constant from protection against low pH inactivation, kobs fitted to equation 4) and 17.6 ± 1.8 mM at SXA [7] (read-out: Ki, dissociation constant from protection against thermal inactivation, kobs fitted to equation 4).
